The results in this text go back to US20140288071A1, “INHIBITORS OF NOTUM […] AND METHODS OF THEIR USE” (priority 2011, published 2014).

Test [1] has as its target T1, human notum pectinacetyltransferase (Homo sapiens, UniProt Q6P988).
T1 construct: made in house; conditioned medium used
T1 sequence (Q6P988 20-496): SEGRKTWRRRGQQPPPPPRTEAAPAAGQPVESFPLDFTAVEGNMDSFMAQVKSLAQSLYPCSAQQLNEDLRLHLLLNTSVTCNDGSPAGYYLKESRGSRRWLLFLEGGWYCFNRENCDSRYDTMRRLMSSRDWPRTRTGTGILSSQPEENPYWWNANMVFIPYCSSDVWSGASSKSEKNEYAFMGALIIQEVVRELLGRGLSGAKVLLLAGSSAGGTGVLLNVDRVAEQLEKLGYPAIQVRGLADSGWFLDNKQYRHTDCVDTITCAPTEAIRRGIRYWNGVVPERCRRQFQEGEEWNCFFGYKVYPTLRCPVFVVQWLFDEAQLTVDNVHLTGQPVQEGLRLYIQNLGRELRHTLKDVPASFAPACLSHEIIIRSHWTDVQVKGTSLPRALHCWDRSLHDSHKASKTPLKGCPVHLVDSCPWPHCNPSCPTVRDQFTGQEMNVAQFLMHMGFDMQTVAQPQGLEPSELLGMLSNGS
The test can be described thus: Reporter assay (CellSensor LEF/TCF-bla FreeStyle 293F cells, Wnt3a and notum conditioned media). The format is cell-based. On the procedure:
Plasmid containing human notum pectinacetyltransferase in pcDNA3.1(+) vector was transfected into HEK293 cells and clones were selecting by growing in presence of 400 ug/mL of G418. […] L cells overexpressing and secreting Wnt3a into the conditioned media were purchased from ATCC.
The assay protocol was as follows. […] The cell growth medium consisted of DMEM with 10% Dialyzed FBS, 5 μg/ml Blasticidin (Invitrogen, R210-01), 0.1 mM NEAA, 25 mM HEPES and 1×GPS. Cells were then trypsinized by first rinsing with PBS, followed by addition of 5 mL of trypsin and incubation of plates at room temperature for two minutes. A total of 10 mL of assay media (Opti-MEM, plus 0.5% dialyzed FBS, 0.1 mM NEAA, 1 mM sodium pyruvate, 10 mM HEPES, 1×GPS) was then added per 15 cm plate. Cells were counted and suspended at 0.75 million cells per mL. […] After incubation of cells at 37° C. for 3 hours, 10 μL of 30 mM LiCl in assay medium was added per well, followed by incubation at 37° C. for another 3 hours. […] Ten μL of the Wnt3a/notum pentinacetyltransferase mixture was then transferred from Greiner plates to each well of the 384-well plates containing the CellSensor cells. After incubation of cells overnight at 37° C., reactions were developed by addition of […] of 1×CCF4 (Invitrogen, Catalogue number K1085) to each well, covering the entire 384-well plate, and gentle rocking in the dark at room temperature for 3 hours.
For orientation: A reporter such as luciferase makes a cellular process visible.

The target in test [2] is T1, human notum pectinacetyltransferase. The test can be described thus: Binding assay (OPTS esterase substrate, fluorimetric). The conditions noted are these: OPTS substrate 5 μM. Format: biochemical. As for the experimental part:
Plasmid containing human notum pectinacetyltransferase in pcDNA3.1(+) vector was transfected into HEK293 cells and clones were selecting by growing in presence of 400 ug/mL of G418. Condition media from these cells was used for the assay.

pEC50, pIC50: −log10 of the molar value.

As for “2-(7-cyclopropyl-6-(trifluoromethyl)thieno[3,2-d]pyrimidin-4-yl)thio)acetate”, the pEC50 (in general, −log10 of the EC50, conventionally taken in molar units) in test [1] is > 6.00. For the same compound, the pIC50 (as a rule, −log10 of the IC50, conventionally taken in molar units) in test [2] is > 7.60.
As for `Cc1sc2ncnc(SCC(=O)N3CCC(C(N)=O)CC3)c2c1C` [1-(2-((5,6-dimethylthieno[2,3-d]pyrimidin-4-yl)thio)acetyl)piperidine-4-carboxamide], in test [2], the pIC50 is > 6.60.
Still for that read-out and setting: the result for `COc1cc2c(cc1OC)CN(C(=O)CSc1ncnc3sc(C)c(C)c13)C2` [1-(5,6-dimethoxyisoindolin-2-yl)-2-((5,6-dimethylthieno[2,3-d]pyrimidin-4-yl)thio)ethanone] reads > 7.60.
Take `Cc1sc2ncnc(SCC(=O)N(C)CC(=O)O)c2c1Cl` [2-(2-((5-chloro-6-methylthieno[2,3-d]pyrimidin-4-yl)thio)-N-methylacetamido)acetic acid]: the pEC50 in test [1] is > 6.00.
Regarding `O=C(O)CSc1ncnc2c(C3CC3)c(C(F)(F)F)sc12` [2-(7-cyclopropyl-6-(trifluoromethyl)thieno[3,2-d]pyrimidin-4-yl)thio)acetic acid], the negative logarithm of the EC50 (pEC50) in test [1] is > 6.00. Moreover, in test [2], the negative-log IC50 (pIC50) was > 7.60.
As for `Cc1sc2ccnc(SCC(=O)O)c2c1Cl` [2-((3-chloro-2-methylthieno[3,2-c]pyridin-4-yl)thio)acetic acid], the pEC50 in test [1] is > 5.30.
As for `Cc1sc2ncnc(SCC(=O)N3Cc4ccccc4C3)c2c1C` [2-((5,6-dimethylthieno[2,3-d]pyrimidin-4-yl)thio)-1-(isoindolin-2-yl)ethanone], the negative-log EC50 (pEC50) in test [1] was > 5.00. The pIC50 in test [2] was > 7.60.
As to `Cc1sc2ncnc(SCC(=O)Nc3ccccc3F)c2c1C` [2-((5,6-dimethylthieno[2,3-d]pyrimidin-4-yl)thio)-N-(2-fluorophenyl)acetamide], in test [2], the pIC50 was > 7.60.
For `Cc1cc(NC(=O)CSc2ncnc3sc(C)c(C)c23)no1` [2-((5,6-dimethylthieno[2,3-d]pyrimidin-4-yl)thio)-N-(5-methylisoxazol-3-yl)acetamide], in test [1], the negative-log EC50 (pEC50) is > 6.00. For the same compound, the pIC50 in test [2] was > 7.60.
For the compound `Cc1ccc(S(=O)(=O)NC(=O)CSc2ncnc3sc(C)c(C)c23)nc1` [2-((5,6-dimethylthieno[2,3-d]pyrimidin-4-yl)thio)-N-((5-methylpyridin-2-yl)sulfonyl)acetamide], in test [2], the negative logarithm of the IC50 (pIC50) is > 7.00.
For `Cc1sc2ncnc(SCC(=O)NOC3CCCCO3)c2c1C` (centres unmarked) [2-((5,6-dimethylthieno[2,3-d]pyrimidin-4-yl)thio)-N-((tetrahydro-2H-pyran-2-yl)oxy)acetamide], the pEC50 in test [1] was > 6.00. Moreover, the pIC50 in test [2] was > 7.60.
Consider `CCS(=O)(=O)NC(=O)CSc1ncnc2sc(C)c(C)c12` [2-((5,6-dimethylthieno[2,3-d]pyrimidin-4-yl)thio)-N-(ethylsulfonyl)acetamide], for which the negative-log IC50 (pIC50) in test [2] was > 7.60.
The same measure, in the same setting: the result for `Cc1sc2ncnc(SCC(=O)NCc3ccco3)c2c1C` [2-((5,6-dimethylthieno[2,3-d]pyrimidin-4-yl)thio)-N-(furan-2-ylmethyl)acetamide] reads > 7.60; that for `Cc1sc2ncnc(SCC(=O)NCc3cccs3)c2c1C` [2-((5,6-dimethylthieno[2,3-d]pyrimidin-4-yl)thio)-N-(thiophen-2-ylmethyl)acetamide], > 7.00.
With `Cc1sc2ncnc(SCC(=O)NO)c2c1C` [2-((5,6-dimethylthieno[2,3-d]pyrimidin-4-yl)thio)-N-hydroxyacetamide], the pEC50 in test [1] is > 6.00. The negative-log IC50 (pIC50) in test [2] was > 7.60.
As for `Cc1sc2ncnc(SCC(=O)NC(C)CO)c2c1Cl` (centres unmarked) [2-((5-chloro-6-methylthieno[2,3-d]pyrimidin-4-yl)thio)-N-(1-hydroxypropan-2-yl)acetamide], the pEC50 in test [1] is > 5.30.
As for `Cc1csc(CCNC(=O)CSc2ncnc3sc(C)c(Cl)c23)n1` [2-((5-chloro-6-methylthieno[2,3-d]pyrimidin-4-yl)thio)-N-(2-(4-methylthiazol-2-yl)ethyl)acetamide], in test [2], the negative-log IC50 (pIC50) is > 7.60.
On to `Cc1sc2ncnc(SCC(=O)NS(C)(=O)=O)c2c1Cl` [2-((5-chloro-6-methylthieno[2,3-d]pyrimidin-4-yl)thio)-N-(methylsulfonyl)acetamide], for which, in test [1], the pEC50 is > 6.00.
For the compound `Cc1sc2ncnc(SCC(=O)NCc3ccncc3)c2c1Cl` [2-((5-chloro-6-methylthieno[2,3-d]pyrimidin-4-yl)thio)-N-(pyridin-4-ylmethyl)acetamide], the negative-log IC50 (pIC50) in test [2] was > 7.60.
On the same count and under the same terms, the result for `Cc1sc2ncnc(SCC(=O)NCc3cccs3)c2c1Cl` [2-((5-chloro-6-methylthieno[2,3-d]pyrimidin-4-yl)thio)-N-(thiophen-2-ylmethyl)acetamide] reads > 7.60; that for `CCCNC(=O)CSc1ncnc2sc(C)c(Cl)c12` [2-((5-chloro-6-methylthieno[2,3-d]pyrimidin-4-yl)thio)-N-propylacetamide], > 7.60; that for `Cc1csc2ncnc(SCC(=O)O)c12` [2-((5-methylthieno[2,3-d]pyrimidin-4-yl)thio)acetic acid], > 7.00.
As to `Cc1sc2c(SCC(=O)O)ncnc2c1C` [2-((6,7-dimethylthieno[3,2-d]pyrimidin-4-yl)thio)acetic acid], in test [2], the pIC50 was > 7.60.
On the same count and under the same terms, the result for `Cc1c(Br)sc2c(SCC(=O)O)ncnc12` [2-((6-bromo-7-methylthieno[3,2-d]pyrimidin-4-yl)thio)acetic acid] reads > 7.60; that for `Cc1c(Cl)sc2ncnc(SCC(=O)O)c12` [2-((6-chloro-5-methylthieno[2,3-d]pyrimidin-4-yl)thio)acetic acid], > 7.60.
Regarding `Cc1c(Cl)sc2c(SCC(=O)NCCN3CCCCC3)ncnc12` [2-((6-chloro-7-methylthieno[3,2-d]pyrimidin-4-yl)thio)-N-(2-(piperidin-1-yl)ethyl)acetamide], the pEC50 in test [1] was > 6.00.
With `Cc1c(Cl)sc2c(SCC(=O)NCc3cccs3)ncnc12` [2-((6-chloro-7-methylthieno[3,2-d]pyrimidin-4-yl)thio)-N-(thiophen-2-ylmethyl)acetamide], the pEC50 in test [1] was > 6.00.
The same measure, in the same setting: the result for `Cc1c(C#N)sc2c(SCC(=O)O)ncnc12` [2-((6-cyano-7-methylthieno[3,2-d]pyrimidin-4-yl)thio)acetic acid] reads > 6.00; that for `Cc1c(C2CC2)sc2ncnc(SCC(=O)O)c12` [2-((6-cyclopropyl-5-methylthieno[2,3-d]pyrimidin-4-yl)thio)acetic acid], > 5.30.
Take `CCc1sc2ncnc(SCC(=O)O)c2c1C` [2-((6-ethyl-5-methylthieno[2,3-d]pyrimidin-4-yl)thio)acetic acid]: the pIC50 in test [2] is > 7.60.
Same read-out and setting: the same measure for `Cc1c(C(C)C)sc2ncnc(SCC(=O)O)c12` [2-((6-isopropyl-5-methylthieno[2,3-d]pyrimidin-4-yl)thio)acetic acid]: > 7.30.
In the case of `Cc1sc2ncnc(SCC(=O)NCCc3c[nH]cn3)c2c1Cl` [N-(2-(1H-imidazol-4-yl)ethyl)-2-((5-chloro-6-methylthieno[2,3-d]pyrimidin-4-yl)thio)acetamide], the pIC50 in test [2] is > 7.60.
Still for that read-out and setting: the result for `Cc1sc2ncnc(SCC(=O)Nc3n[nH]c4cccc(Cl)c34)c2c1C` [N-(4-chloro-1H-indazol-3-yl)-2-((5,6-dimethylthieno[2,3-d]pyrimidin-4-yl)thio)acetamide] reads > 7.60.
Take `Cc1sc2ncnc(SCC(=O)NS(=O)(=O)C3CC3)c2c1C` [N-(cyclopropylsulfonyl)-2-((5,6-dimethylthieno[2,3-d]pyrimidin-4-yl)thio)acetamide]: in test [2], the pIC50 is > 7.60.
Same read-out and setting: the same measure for `COC(=O)CSc1ncnc2sc(C)c(C3CC3)c12` [methyl 2-((5-cyclopropyl-6-methylthieno[2,3-d]pyrimidin-4-yl)thio)acetate]: > 7.60.
On the same count and under the same terms, the same measure for `COC(=O)CSc1ncnc2c(C3CC3)c(Cl)sc12` [methyl 2-((6-chloro-7-cyclopropylthieno[3,2-d]pyrimidin-4-yl)thio)acetate]: > 7.60.
As to `COC(=O)CSc1ncnc2c(C)c(C#N)sc12` [methyl 2-((6-cyano-7-methylthieno[3,2-d]pyrimidin-4-yl)thio)acetate], the pEC50 in test [1] is > 6.00.
With `COC(=O)CSc1ncnc2sc(C3CC3)c(C)c12` [methyl 2-((6-cyclopropyl-5-methylthieno[2,3-d]pyrimidin-4-yl)thio)acetate], the pIC50 in test [2] is > 7.60.
